# Tested on: pERK in NCI-H358 cells
# Test: Cell-based pERK HTRF assay (pERK inhibition in H358 cells)
# Conditions: Homo sapiens, NCI-H358, 0.5 h, pERK inhibition IC50, NCI-H358 cells, 30 min incubation; read-out: PERK in H358 cell
# Protocol: On Day 1, cells (NCI-H358) were seeded into 96-well plates at 4×10^4 cells/well in complete growth media (RPMI, 10% FBS).
# The source plate was created with compounds diluted in media at 5-fold the final assay concentration. […] 20 μL was transferred onto the cell plates (final volume in wells was 100 μL). Plates were harvested after 30 min incubation by aspirating media and adding kit-supplied 1× supplemented lysis buffer to all wells (75 μl per well). Plates were then placed on a plate shaker and incubated at 850 rpm for an additional 30 min.
# Antibody mixture solution was prepared by diluting aliquoted d2 and Eu Cryptate antibodies 1:20 in kit supplied detection buffer, then mixed the diluted antibodies solutions (1:1 v:v).
# Samples were homogenized by pipetting up and down and then transferred (16 μL of cell lysates) from the 96-well cell culture plate to two wells of the HTRF 384-well detection plate containing the antibody solution. Plates were centrifuged (524 g for 1 min) and allowed to incubate between 4 and 24 h at room temperature. Maximum signal is reached after 4 h incubation time and remains stable over a period of 24 hours. Therefore, readings can be made between 4 and 24 h of incubation.
row,Compound,IC50 [µM]
1,"C=CC(=O)N1C[C@H](C)N(c2nc(OC[C@@H]3CCCN3C)nc3c(F)c(-c4ccc(F)c5sc(N)c(C#N)c45)c(C(F)(F)F)cc23)C[C@H]1C (single isomer, unassigned) [Compound 458]",< 0.1
2,"C=CC(=O)N1CC[C@H](N(C)c2nc(OC[C@@]34CCCN3C[C@H](F)C4)nc3c(F)c(-c4ccc(F)c5sc(N)c(C#N)c45)c(C(F)(F)F)cc23)[C@@H]1C (single isomer, unassigned) [Compound 472]",< 0.1
3,"C=CC(=O)N1CC(Nc2nc(OC[C@@H]3CCCN3C)nc3c(F)c(-c4ccc(F)c5sc(N)nc45)c(Cl)cc23)C1 [Compound 23, 1-(3-((7-(2-amino-7-fluorobenzo[d]thiazol-4-yl)-6-chloro-8-fluoro-2-(((S)-1-methylpyrrolidin-2-yl)methoxy)quinazolin-4-yl)amino)azetidin-1-yl)prop-2-en-1-one]",> 1
4,C=CC(=O)N1CC(Nc2nc(OC[C@@H]3CCCN3C)nc3c(F)c(-c4ccc(F)c5sc(N)nc45)ncc23)C1 [Compound 43],> 1
5,C=CC(=O)N1CCN(c2nc(OC[C@@H]3CCCN3C)nc3c(F)c(-c4ccc(F)c5sc(N)nc45)c(Cl)cc23)CC1 [Compound 44],< 0.1
6,N#CN1CC(Nc2ncnc3c(F)c(-c4ccc(F)c5sc(N)nc45)c(C(F)(F)F)cc23)C1 [Compound 45],< 0.1
7,"C=CC(=O)N1CC(Nc2nc(OCC34CCCN3CCC4)nc3c(F)c(-c4ccc(F)c5sc(N)nc45)c(Cl)cc23)C1 [Compound 49, 1-(3-((7-(2-amino-7-fluorobenzo[d]thiazol-4-yl)-6-chloro-8-fluoro-2-((tetrahydro-1H-pyrrolizin-7a(5H)-yl)methoxy)quinazolin-4-yl)amino)azetidin-1-yl)prop-2-en-1-one]",> 1
8,CN1CCC[C@H]1COc1nc(NC2CCN(C#N)C2)c2cc(Cl)c(-c3ccc(F)c4sc(N)nc34)c(F)c2n1 (stereo partly drawn) [Compound 51],0.1 to 1
9,C=CC(=O)N1CCC(Nc2nc(OC[C@@H]3CCCN3C)nc3c(F)c(-c4ccc(F)c5sc(N)nc45)c(Cl)cc23)C1 (stereo partly drawn) [Compound 52],> 1
10,CN1CCC[C@H]1COc1nc(NC2CCCN(C#N)C2)c2cc(Cl)c(-c3ccc(F)c4sc(N)nc34)c(F)c2n1 (stereo partly drawn) [Compound 53],> 1
11,C=CC(=O)N1CCCC(Nc2nc(OC[C@@H]3CCCN3C)nc3c(F)c(-c4ccc(F)c5sc(N)nc45)c(Cl)cc23)C1 (stereo partly drawn) [Compound 54],0.1 to 1
12,CN1CCC[C@H]1COc1nc(NC2CCN(C#N)CC2)c2cc(Cl)c(-c3ccc(F)c4sc(N)nc34)c(F)c2n1 [Compound 55],> 1
13,N#CN1CC(Nc2nc(OCC34CCCN3CCC4)nc3c(F)c(-c4ccc(F)c5sc(N)nc45)c(Cl)cc23)C1 [Compound 58],0.1 to 1
14,C=CC(=O)N1CC(Nc2nc(C3CCN(C)CC3)nc3c(F)c(-c4ccc(F)c5sc(N)nc45)c(Cl)cc23)C1 [Compound 60],> 1
15,C=CC(=O)N1CC(Nc2nc(OC[C@@H]3C[C@@H](F)CN3C)nc3c(F)c(-c4ccc(F)c5sc(N)nc45)c(Cl)cc23)C1 [Compound 63],0.1 to 1
16,C=CC(=O)NCCNc1nc(C2CCN(C)CC2)nc2c(F)c(-c3ccc(F)c4sc(N)nc34)c(Cl)cc12 [Compound 64],> 1
17,C=CC(=O)N1CC[C@@H]2[C@H]1CN2c1nc(OCC23CCCN2CCC3)nc2c(F)c(-c3ccc(F)c4sc(N)nc34)c(Cl)cc12 [Compound 65],0.1 to 1

row,Compound,IC50 [µM]
1,C=CC(=O)N1CC[C@@H]2[C@H]1CN2c1nc(OC[C@@H]2CCCN2C)nc2c(F)c(-c3ccc(F)c4sc(N)nc34)c(Cl)cc12 [Compound 66],< 0.1
2,C=CC(=O)N1CCN(c2nc(OCC34CCCN3CCC4)nc3c(F)c(-c4ccc(F)c5sc(N)nc45)c(Cl)cc23)CC1 [Compound 67],< 0.1
3,"C=CC(=O)N1CC(Nc2ncnc3c(F)c(-c4ccc(F)c5sc(N)nc45)cc(OC)c23)C1 [Compound 69, 1-(3-((7-(2-amino-7-fluorobenzo[d]thiazol-4-yl)-8-fluoro-5-methoxyquinazolin-4-yl)amino)azetidin-1-yl)prop-2-en-1-one]",> 1
4,"C=CC(=O)N1CC(Nc2nc(OCC34CCCN3CCC4)nc3c(F)c(-c4ccc(F)c5sc(N)nc45)c(-c4ccoc4)cc23)C1 [Compound 70, 1-(3-((7-(2-amino-7-fluorobenzo[d]thiazol-4-yl)-8-fluoro-6-(furan-3-yl)-2-((tetrahydro-1H-pyrrolizin-7a(5H)-yl)methoxy)quinazolin-4-yl)amino)azetidin-1-yl)prop-2-en-1-one]",> 1
5,"C=CC(=O)N1CCN(c2nc(OC[C@@H]3CCCN3C)nc3c(F)c(-c4ccc(F)c5sc(N)nc45)c(C(F)(F)F)cc23)CC1 [Compound 71, 1-(4-(7-(2-amino-7-fluorobenzo[d]thiazol-4-yl)-8-fluoro-2-(((S)-1-methylpyrrolidin-2-yl)methoxy)-6-(trifluoromethyl)quinazolin-4-yl)piperazin-1-yl)prop-2-en-1-one]",< 0.1
6,C=CC(=O)N1CCN(c2ncnc3c(F)c(-c4ccc(F)c5sc(N)nc45)c(CC#N)cc23)CC1 [Compound 72],> 1
7,C=CC(=O)N1CC(Nc2nc(OCC34CCCN3CCC4)nc3c(F)c(-c4ccc(F)c5sc(N)nc45)c(C(F)(F)F)cc23)C1 [Compound 79],> 1
8,"C=CC(=O)N1CCN(c2nc(OCC34CCCN3CCC4)nc3c(F)c(-c4ccc(F)c5sc(N)nc45)c(C(F)(F)F)cc23)CC1 [Compound 80, 1-(4-(7-(2-amino-7-fluorobenzo[d]thiazol-4-yl)-8-fluoro-2-((tetrahydro-1H-pyrrolizin-7a(5H)-yl)methoxy)-6-(trifluoromethyl)quinazolin-4-yl)piperazin-1-yl)prop-2-en-1-one]",< 0.1
9,C#CC(=O)N1CC(Nc2nc(OC[C@@H]3CCCN3C)nc3c(F)c(-c4ccc(F)c5sc(N)nc45)c(Cl)cc23)C1 [Compound 81],0.1 to 1
10,C=CC(=O)N1CCN(c2ncnc3c(F)c(-c4ccc(F)c5sc(N)nc45)c(Cl)c(OC)c23)CC1 [Compound 82],< 0.1
11,"C=CC(=O)N1CC(N(C)c2nc(OCC34CCCN3CCC4)nc3c(F)c(-c4ccc(F)c5sc(N)nc45)c(Cl)cc23)C1 [Compound 84, 1-(3-((7-(2-amino-7-fluorobenzo[d]thiazol-4-yl)-6-chloro-8-fluoro-2-((tetrahydro-1H-pyrrolizin-7a(5H)-yl)methoxy)quinazolin-4-yl)(methyl)amino)azetidin-1-yl)prop-2-en-1-one]",0.1 to 1
12,C=CC(=O)N1CC(Nc2nc(OC[C@@H]3CCCN3C)nc3c(F)c(-c4cccc5oc(N)nc45)c(Cl)cc23)C1 [Compound 88],> 1
13,C=CC(=O)N1CC[C@@H]2[C@H]1CN2c1nc(OC[C@@H]2C[C@@H](F)CN2C)nc2c(F)c(-c3ccc(F)c4sc(N)nc34)c(Cl)cc12 [Compound 89],< 0.1
14,C=CC(=O)N1CC(Nc2nc(OC[C@@H]3CCCN3C)nc3c(F)c(-c4ccc(F)c5nc(N)sc45)c(Cl)cc23)C1 [Compound 90],> 1
15,"C=CC(=O)N1CC(Nc2nc(OCC34CCCN3CCC4)nc3c(F)c(-c4ccc(F)c5sc(N)nc45)c(CC#N)cc23)C1 [Compound 91, 2-(4-((1-acryloylazetidin-3-yl)amino)-7-(2-amino-7-fluorobenzo[d]thiazol-4-yl)-8-fluoro-2-((tetrahydro-1H-pyrrolizin-7a(5H)-yl)methoxy)quinazolin-6-yl)acetonitrile]",> 1
16,"CC#CC(=O)N1CC(Nc2nc(OC[C@@H]3CCCN3C)nc3c(F)c(-c4ccc(F)c5sc(N)nc45)c(Cl)cc23)C1 [Compound 92, 1-[3-[[7-(2-amino-7-fluoro-1,3-benzothiazol-4-yl)-6-chloro-8-fluoro-2-[[(2S)-1-methylpyrrolidin-2-yl]methoxy]quinazolin-4-yl]amino]azetidin-1-yl]but-2-yn-1-one]",> 1
17,C=CC(=O)N1CC(Nc2nc(OC[C@@H]3CCCN3C)nc3c(F)c(-c4ccc(F)c5sc(N)nc45)c(-c4ccoc4)cc23)C1 [Compound 93],> 1

# Same assay, conditions: Homo sapiens, NCI-H358, 0.5 h, read-out: PERK in H358 cell
row,Compound,IC50 [µM]
1,"CN1CCC[C@H]1COc1nc(NC2CN(C#N)C2)c2cc(Cl)c(-c3ccc(F)c4sc(N)nc34)c(F)c2n1 [Compound 40, 3-((7-(2-amino-7-fluorobenzo[d]thiazol-4-yl)-6-chloro-8-fluoro-2-(((S)-1-methylpyrrolidin-2-yl)methoxy)quinazolin-4-yl)amino)azetidine-1-carbonitrile]",0.1 to 1

# Same assay, conditions: pERK inhibition IC50, NCI-H358 cells, 30 min incubation; read-out: PERK in H358 cell
row,Compound,IC50 [µM]
1,"C=CC(=O)N1C[C@H](C)N(c2nc(OC[C@@]34CCCN3C[C@H](F)C4)nc3c(F)c(-c4ccc(F)c5sc(N)c(C#N)c45)c(C(F)(F)F)cc23)C[C@H]1C (single isomer, unassigned) [Compound 314]",0.1 to 1
2,"C=CC(=O)N1CC[C@@H](N(C)c2nc(OC[C@@]34CCCN3C[C@H](F)C4)nc3c(F)c(-c4ccc(F)c5sc(N)c(C#N)c45)c(C(F)(F)F)cc23)[C@H]1C (single isomer, unassigned) [Compound 434]",< 0.1
3,"C=CC(=O)N1CC[C@@H](N(C)c2nc(OC[C@@]34CCCN3C[C@H](F)C4)nc3c(F)c(-c4ccc(F)c5sc(N)c(C#N)c45)c(C(F)(F)F)cc23)[C@H]1C (single isomer, unassigned) [Compound 435]",> 1
4,"C=CC(=O)N1CC[C@H](N(C)c2nc(OC[C@@]34CCCN3C[C@H](F)C4)nc3c(F)c(-c4ccc(F)c5sc(N)c(C#N)c45)c(C(F)(F)F)cc23)[C@@H]1C (single isomer, unassigned) [Compound 473]",< 0.1
